Here are results for four compounds from BindingDB's records for doi:10.1002/cbic.201600267 (Fairfield University, 2016).

Each structure is given as a SMILES string. pKi: −log10 of the molar value.

The target in the experiment is Beta-galactosidase (Escherichia coli (strain K12), UniProt P00722). The experiment can be described thus: beta-Galactosidase Assay. Particulars: 30 °C. The procedure: Enzymatic activity of beta-galactosidase from Escherichia coli (1.2 x 10^-10 M) was measured using the colorimetric substrate ortho-nitrophenyl-b-galactoside ([ONPG]: 2500, 2000, 1500, 1000, 500, 250, 125 uM) in Z-Buffer (100 mM sodium phosphate at pH = 7, 10 mM KCl, 1 mM MgSO4) to which was added fresh 50 mM beta-mercaptoethanol at 30 °C. In a 96-well plate were combined a 5x stock solution of Z-buffer (containing 250 mM beta-mercaptoethanol) and 5x stock solutions of ONPG. Samples were adjusted to a final volume of 180 uL with water. Samples were equilibrated at 30 °C for 5 minutes on a Synergy H1 microplate reader. A 10x stock solution of enzyme (20 uL) was then injected into each well and the production of 2-nitrophenol was quantified at 410 nm over a period of 10 minutes.
Sequence of Beta-galactosidase (P00722 whole entry): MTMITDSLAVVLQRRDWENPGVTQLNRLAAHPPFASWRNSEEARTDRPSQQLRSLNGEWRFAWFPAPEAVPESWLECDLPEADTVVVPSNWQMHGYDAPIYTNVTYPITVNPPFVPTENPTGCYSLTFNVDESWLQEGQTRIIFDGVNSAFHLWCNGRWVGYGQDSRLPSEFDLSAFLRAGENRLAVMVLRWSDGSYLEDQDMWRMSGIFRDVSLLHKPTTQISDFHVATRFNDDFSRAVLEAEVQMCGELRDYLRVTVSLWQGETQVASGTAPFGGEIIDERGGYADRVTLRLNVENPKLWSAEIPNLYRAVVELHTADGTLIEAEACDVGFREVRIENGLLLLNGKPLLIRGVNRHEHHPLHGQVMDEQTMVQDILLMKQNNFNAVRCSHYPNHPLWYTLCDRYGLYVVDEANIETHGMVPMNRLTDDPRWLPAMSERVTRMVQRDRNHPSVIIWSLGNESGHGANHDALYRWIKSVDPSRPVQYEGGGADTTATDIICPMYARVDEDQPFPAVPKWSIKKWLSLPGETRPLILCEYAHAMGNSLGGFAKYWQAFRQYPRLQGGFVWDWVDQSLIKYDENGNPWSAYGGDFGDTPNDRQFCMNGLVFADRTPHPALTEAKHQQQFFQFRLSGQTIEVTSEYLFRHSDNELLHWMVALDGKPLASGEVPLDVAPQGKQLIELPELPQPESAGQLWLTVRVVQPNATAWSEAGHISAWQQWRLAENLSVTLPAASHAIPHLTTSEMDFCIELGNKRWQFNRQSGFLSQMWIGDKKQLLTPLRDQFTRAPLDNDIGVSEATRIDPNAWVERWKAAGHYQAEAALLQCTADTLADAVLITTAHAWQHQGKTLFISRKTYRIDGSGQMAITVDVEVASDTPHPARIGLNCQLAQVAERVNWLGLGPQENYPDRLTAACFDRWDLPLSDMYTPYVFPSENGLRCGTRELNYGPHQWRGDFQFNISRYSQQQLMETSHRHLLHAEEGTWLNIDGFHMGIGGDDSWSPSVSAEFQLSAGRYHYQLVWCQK
Take `CC(C)S[C@@H]1O[C@H](CO)[C@H](O)[C@H](O)[C@H]1O` [IPTG]: the negative logarithm of the Ki (pKi) was 4.12.

For the compound `O=C(NCCOCCOCCOCCNC(=O)c1ccc(C(=O)OCCS[C@@H]2O[C@H](CO)[C@H](O)[C@H](O)[C@H]2O)c(C(c2ccccc2)c2ccccc2)c1)c1ccc(C(=O)c2ccccc2)cc1` [β-gal inhibitor, 13], the pKi is 5.52.

As to `O=C(NCCOCCOCCOCCNC(=O)c1ccc(C(=O)OCCOCCS[C@@H]2O[C@H](CO)[C@H](O)[C@H](O)[C@H]2O)c(C(c2ccccc2)c2ccccc2)c1)c1ccc(C(=O)c2ccccc2)cc1` [β-gal inhibitor, 14], the negative-log Ki (pKi) was 5.41.

Regarding `O=C(NCCOCCOCCOCCNC(=O)c1ccc(C(=O)OCCOCCOCCOCCS[C@@H]2O[C@H](CO)[C@H](O)[C@H](O)[C@H]2O)c(C(c2ccccc2)c2ccccc2)c1)c1ccc(C(=O)c2ccccc2)cc1` [β-gal inhibitor, 15], the negative logarithm of the Ki (pKi) was 5.23.
